What was measured:
3T3 cells = experiment: [^3 H]-thymidine incorporation in serum-starved 3T3 cells challenged with bFGF; type: cell-based; conditions: 24 hours with peptide and bFGF challenge, then 5 hours label, result in words
Description: The synthesis of bFGF(97-120)-NH2 having the formula: H-Arg-Leu-Glu-Ser-Asn-Asn-Tyr-Asn-Thr-Tyr-Arg-Ser-Arg-Lys-Tyr-Ser-Ser-Trp- Tyr-Val-Ala-Lys-Arg-NH2 is conducted in a stepwise manner using a Beckman 990 synthesizer and an MBHA resin in the manner described in Example I. The peptide is judged to be substantially pure using TLC and HPLC. Testing is carried out using a culture of serum-starved 3T3 cells which are incubated for 24 hours with the bFGF peptide fragment and a challenge dose of bFGF and then incubated for 5 hours with radioactive [^3 H]-thymidine to determine whether the fragment will inhibit the incorporation of [^3 H]-DNA in the cell line which will be indicative of its inhibiting cell growth.

[1] = tested on: FGF receptors of BHK cells; conditions: result in words
[2] = Binding to [^3 H]-heparin; conditions: result in words

binding of the peptide to heparin [2] | Substance | inhibition of bFGF-induced mitosis ([^3 H]-thymidine incorporation) (3T3 cells) | inhibition of bFGF binding to BHK cells (receptor) [1]
binds to heparin | H-YRSRKYSSWY-NH2 [bFGF(106-115)-NH2, H-Tyr-Arg-Ser-Arg-Lys-Tyr-Ser-Ser-Trp-Tyr-NH2] | very good inhibition | very strongly inhibits
binds itself to heparin | H-Arg-Leu-Glu-Ser-Asn-Asn-Tyr-Asn-Thr-Tyr-Arg-Ser-Arg-Lys-Tyr-Ser-Ser-Trp- Tyr-Val-Ala-Lys-Arg-NH2 (H-RLESNNYNTYRSRKYSSWYVAKR-NH2) [bFGF(97-120)-NH2] | very good inhibition | very strongly inhibits
